Results published in patent US20150105252A1, “SUBSTITUTED PYRAZOLES AS HERBICIDES” (E I DU PONT DE NEMOURS AND COMPANY, priority 2013, published 2015).

Key:
common ragweed [1] = assay: Test A postemergence; assay type: in vivo, Ambrosia elation; settings: Postemergence
Summary of the method: (§1)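 Both timings tested concurrently in loam/sand soil: preemergence by directed soil spray, postemergence on plants of 2–10 cm at the one- to two-leaf stage. Greenhouse holding period was approximately 10 days before visual injury assessment (0–100, 0 = no effect).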

pigweed [2] = assay: Test A preemergence; assay type: in vivo, Amaranthus retroflexus; settings: preemergence, 125 g ai/ha, visual injury approx. 10 days after treatment
Summary of the method: as §1

Italian ryegrass [3] = assay: Test A postemergence; assay type: in vivo, Lolium multiflorum; settings: Postemergence
Summary of the method: as §1

galium = assay: Test A postemergence; assay type: in vivo, Galium aparine; settings: Postemergence
Summary of the method: as §1

pigweed [4] = assay: Test A postemergence; assay type: in vivo, Amaranthus retroflexus; settings: Postemergence
Summary of the method: as §1

barnyardgrass [5] = assay: Test B flood; assay type: in vivo, Echinochloa crus-galli; settings: 250 g ai/ha, visual rating on 0 to 100 scale (0 no effect, 100 complete control), 13 to 15 days
Summary of the method: (§2)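 Two-leaf-stage plants, pots flooded (3 cm above soil) and treated through the water, which stayed at that depth. After 13–15 days in greenhouse conditions, visual assessment versus controls: 0 is no effect, 100 complete control, dash means no result.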

sedge, umbrella = assay: Test B flood; assay type: in vivo, Cyperus difformis; settings: 250 g ai/ha, visual rating on 0 to 100 scale (0 no effect, 100 complete control), 13 to 15 days
Summary of the method: as §2

blackgrass = assay: Test A postemergence; assay type: in vivo, Alopecurus myosuroides; settings: Postemergence
Summary of the method: as §1

foxtail, giant [6] = assay: Test A postemergence; assay type: in vivo, Setaria faberii; settings: Postemergence
Summary of the method: as §1

kochia [7] = assay: Test A preemergence; assay type: in vivo, Kochia scoparia; settings: 125 g ai/ha, visual injury approx. 10 days after treatment
Summary of the method: as §1

Italian ryegrass [8] = assay: Test A preemergence; assay type: in vivo, Lolium multiflorum
Summary of the method: as §1

foxtail, giant [9] = assay: Test A preemergence; assay type: in vivo, Setaria faberii; settings: preemergence
Summary of the method: as §1

barnyardgrass [10] = assay: Test A postemergence; assay type: in vivo, Echinochloa crus-galli; settings: Postemergence
Summary of the method: as §1

wheat = assay: Test A postemergence; assay type: in vivo, Triticum aestivum; settings: Postemergence
Summary of the method: as §1

corn = assay: Test A postemergence; assay type: in vivo, Zea mays; settings: Postemergence
Summary of the method: as §1

ducksalad = assay: Test B flood; assay type: in vivo, Heteranthera limosa; settings: 250 g ai/ha, visual rating on 0 to 100 scale (0 no effect, 100 complete control), 13 to 15 days
Summary of the method: as §2

kochia [11] = assay: Test A postemergence; assay type: in vivo, Kochia scoparia; settings: Postemergence
Summary of the method: as §1

common ragweed [12] = assay: Test A preemergence; assay type: in vivo, Ambrosia elation
Summary of the method: as §1

barnyardgrass [13] = assay: Test A preemergence; assay type: in vivo, Echinochloa crus-galli; settings: preemergence
Summary of the method: as §1

rice = assay: Test B flood; assay type: in vivo, Oryza sativa; settings: 250 g ai/ha, visual rating on 0 to 100 scale (0 no effect, 100 complete control), 13 to 15 days
Summary of the method: as §2

[14] = 125 g ai/ha, 0 to 100 scale, 0 no effect, 100 complete control
[15] = 500 g ai/ha, 0 to 100 scale (0 no effect, 100 complete control)
[16] = 125 g ai/ha, visual injury approx. 10 days after treatment
[17] = 500 g ai/ha, visual injury after approx. 10 days, 0 to 100 scale (0 no effect, 100 complete control)

SMILES: CCc1cc(C(=O)NC2CC2)nn1Cc1cc(C(F)(F)F)nn1C(C)C [Compound 212]
- Common Ragweed plant response rating (common ragweed [1]; [14]): 0
- Common Ragweed plant response rating (common ragweed [1]; [15]): 10
- Pigweed plant response rating (0 to 100 scale) (pigweed [2]): 20
- Italian Ryegrass plant response rating (Italian ryegrass [3]; [14]): 0
- Italian Ryegrass plant response rating (Italian ryegrass [3]; [15]): 10
- Galium plant response rating (galium; [14]): 20
- Galium plant response rating (galium; [15]): 40
- Pigweed plant response rating (pigweed [4]; [14]): 40
- Pigweed plant response rating (pigweed [4]; [15]): 80
- Plant response rating, Barnyardgrass (barnyardgrass [5]): 0
- Plant response rating, Sedge, Umbrella (sedge, umbrella): 0
- Blackgrass plant response rating (blackgrass; [14]): 0
- Blackgrass plant response rating (blackgrass; [15]): 10
- Foxtail, Giant plant response rating (foxtail, giant [6]; [14]): 0
- Foxtail, Giant plant response rating (foxtail, giant [6]; [15]): 10
- Kochia plant response rating (0 to 100 scale) (kochia [7]): 0
- Italian Ryegrass plant response rating (0 to 100 scale) (Italian ryegrass [8]; [16]): 0
- Italian Ryegrass plant response rating (Italian ryegrass [8]; [17]): 0
- Foxtail, Giant plant response rating (0 to 100 scale) (foxtail, giant [9]; [16]): 0
- Foxtail, Giant plant response rating (foxtail, giant [9]; [17]): 0
- Barnyardgrass plant response rating (barnyardgrass [10]; [14]): 0
- Barnyardgrass plant response rating (barnyardgrass [10]; [15]): 10
- Wheat plant response rating (wheat; [14]): 0
- Wheat plant response rating (wheat; [15]): 10
- Corn plant response rating (corn; [14]): 0
- Corn plant response rating (corn; [15]): 10
- Plant response rating, Ducksalad (ducksalad): 0
- Kochia plant response rating (kochia [11]; [14]): 10
- Kochia plant response rating (kochia [11]; [15]): 70
- Common Ragweed plant response rating (0 to 100 scale) (common ragweed [12]; [16]): 0
- Common Ragweed plant response rating (common ragweed [12]; [17]): 0
- Barnyardgrass plant response rating (0 to 100 scale, 0 is no effect, 100 is complete control) (barnyardgrass [13]; [16]): 0
- Barnyardgrass plant response rating (barnyardgrass [13]; [17]): 0
- Plant response rating, Rice (rice): 0
